Literature values as cited in publication PMC11419783 (Blood, 2024).

Assays:
[1] = tested on: KMT2A-r cell lines engineered to express mutant menin (M327I or T349M); settings: M327I or T349M in endogenous MEN1-coding sequence
[2] = tested on: Recombinant mutant MEN1 (MEN1^M327I, MEN1^T349M)
[3] = tested on: KMT2A and NPM1 altered R/R acute leukemia; settings: recommended phase 2 dose, NPM1-altered disease

| Compound | sensitivity of menin-mutant cell lines to antiproliferative effects [1] | binding affinity to mutant MEN1 [2] | complete remission/complete remission with partial recovery of peripheral blood counts [3] [%] |
| --- | --- | --- | --- |
| COc1cc(-c2ccc(CN[C@H]3C[C@@H](O)[C@@H](N(C)c4ncnc5sc(CC(F)(F)F)cc45)C3)cc2)nnc1OC [DS-1594] | resistant |  |  |
| CNc1nc(NC2CCN(Cc3ccc4c(cc(C#N)n4CC45CC(NC=O)(C4)C5)c3C)CC2)c2cc(CC(F)(F)F)sc2n1 [MI3454] | resistant |  |  |
| CCN(C(=O)c1cc(F)ccc1Oc1cncnc1N1CC2(CCN(C[C@H]3CC[C@H](NS(=O)(=O)CC)CC3)CC2)C1)C(C)C [revumenib] | resistant | significant reduction in binding affinity |  |
| CNc1nc(NC2CCN(Cc3ccc4c(cc(C#N)n4C[C@H](C)N4CCN(S(C)(=O)=O)CC4)c3C)CC2)c2cc(CC(F)(F)F)sc2n1 [ziftomenib] |  |  | 35 |
